# Measured values reported in patent US12258578B2, “Agent for accelerating maturation or aging of cells” (JUNTENDO EDUCATIONAL FOUNDATION, priority 2019, dated 2025).
# Entries after “also recorded” stand apart in the source; their conditions may differ.
# Key:
# [1] = test system: nerve cells induced from human iPS cells; test: GFP-Synapsin fluorescent reporter screening for nerve cell maturation; type: cell-based; conditions: for acceleration of cell maturation: human iPS cell-derived neurons, same manner as in Example 1
# Procedure: (1) A nerve cell cluster (Neurosphere) containing neural stem cells was prepared in suspension culture from iPS cells, passaged six times, and differentiated into nerves. A mature nerve cell-specific fluorescent reporter (GFP-Synapsin) was introduced using a lentiviral vector. Thereafter, the culture was switched to adherent culture, and 10 μM each of the low-molecular compound library (Sigma Aldrich) was added to the culture medium for neural differentiation, and the culture was performed for 17 days. The fluorescence intensity of GFP-Synapsin was quantified using an imaging cytometer (In cell analyzer). Using an astrocyte conditioned medium (ACM), which accelerates neural differentiation, as a control, compounds showing a fluorescence intensity closer to the control were selected (FIG. 1 and FIG. 2).
# DAN from human iPS cells [2] = test: γH2AX (Ser139) immunostaining of iPS cell-derived DAN; type: cell-based; conditions: day 7
# Procedure: (2) The differentiation induction of DAN from human iPS cells was performed using the same method as in Example 2(2), and immunostaining using a γH2AX (Ser139) antibody was performed on day 7 (FIGD. 8-D-F).
# [3] = test system: dopaminergic neurons (DAN) differentiated from human iPS cells; test: Quantification of tyrosine hydroxylase (TH) positive cells (DAN); type: cell-based; conditions: 1, 5 or 10 μM
# Procedure: (1) When neural differentiation of human iPS cells into dopaminergic nerve cells was performed, KU-60019 was added to the neural differentiation medium at 1, 5 or 10 μM, followed by culture for 10 days, and the cells expressing Nestin, which is a marker of undifferentiated nervous system, were quantified to evaluate the differentiation efficiency (the culture conditions are shown in FIG. 3). […] (2) In order to compare the amounts of dopaminergic neurons (DAN) differentiated by the same method as in (1), the quantification of tyrosine hydroxylase (TH) positive cells, which is a specific marker of mature DAN, was performed (FIG. 6).
# DAN from human iPS cells [4] = test: Lamin B1 immunostaining of iPS cell-derived DAN; type: cell-based; conditions: day 7
# Procedure: (1) The differentiation induction of DAN from human iPS cells was performed using the same method as in Example 2(2), and immunostaining using a Lamin B1 antibody was performed on day 7 (FIGS. 8-A-C).
# [5] = test system: iPS cell-derived nerve cells (DAN); test: Intracellular NAD+ concentration by colorimetric method; type: cell-based, human; conditions: cells recovered after 10 days
# Procedure: (3) The differentiation induction of DAN was performed using the same method as in (2), the cells were recovered after 10 days, and the intracellular NAD^+ concentration was measured using a colorimetric method (FIG. 7).
# [6] = test system: human iPS cells differentiated into dopaminergic nerve cells; test: Quantification of Nestin-positive cells during dopaminergic neural differentiation; type: cell-based; conditions: 1, 5 or 10 μM, culture for 10 days
# Procedure: (1) When neural differentiation of human iPS cells into dopaminergic nerve cells was performed, KU-60019 was added to the neural differentiation medium at 1, 5 or 10 μM, followed by culture for 10 days, and the cells expressing Nestin, which is a marker of undifferentiated nervous system, were quantified to evaluate the differentiation efficiency (the culture conditions are shown in FIG. 3).
# [7] = test system: human fibroblasts derived from a young donor; test: Aging-specific marker SA-Gal in human fibroblasts; type: cell-based
# SHSY5 cells = test: Cell aging of SHSY5 cells (nuclear membrane staining, qPCR); type: cell-based, human
# Description: A decrease in Lamin B1 (LMNB1) mRNA (FIG. 12B), an increase in aging marker p16 mRNA (FIG. 12C) and a […] in aging marker p21 mRNA were detected by qPCR (mean±SEM, n=4, *p<0.01.) (FIG. 12D). That is, also in SHSY5 (immortalized cell line of human nervous system), a breakdown of the nuclear membrane was observed by the addition of KU60019.
# [8] = test system: PARK4-iPS cell-derived DAN; test: Cell loss of PARK4-iPS cell-derived DAN (TH antibody); type: cell-based, human
# Description: Since KU-60019 accelerates neural differentiation from human iPS cells and cell aging, it was verified whether the culture period required for phenotypic detection in DAN differentiated from Parkinson's disease-iPS cells could be shortened by the addition of KU-60019 to a conventional culture method. The culture periods required until phenotypic detection in the case of addition of KU-60019 and in the case of non-addition of KU-60019 were compared using iPS cells established from a patient with typical PARK 4 (α-synuclein duplication), which develops at a relatively old age (50s and beyond) among hereditary Parkinson's diseases. (1) After performing the differentiation induction of PARK4-iPS cell-derived DAN using the same method as in Example 2(2), the cell loss of DAN was analyzed on days 7 and 10 using a TH antibody.
# [9] = test system: human fibroblasts derived from a young donor; test: Aging-specific nuclear membrane abnormalities in human fibroblasts (Lamin B1, Lamin A/C); type: cell-based
# Description: The proportion of cells showing normal nuclear membrane structure in fibroblasts derived from a young donor was reduced by the action of KU60019 (mean±SEM, n=6, *p<0.01.) (FIG. 10B). In fibroblasts collected from an old donor, when compared with human fibroblasts collected from a young donor, a decrease in Lamin B1, which is a nuclear membrane marker, as an aging-specific nuclear membrane abnormality is observed.
Compound,acceleration of cell maturation [1],γH2AX accumulation (DNA damage) (DAN from human iPS cells [2]),TH positive cells (DAN) ([3]; culture continued to day 10),TH positive cells (DAN) ([3]; day 7 of culture),structure of Lamin B1 (nuclear membrane) (DAN from human iPS cells [4]),intracellular NAD+ concentration [5],amount of Nestin-positive cells [6],SA-Gal positive cells [7],"SA-Gal intensity ([7]; n=6, p<0.01)","fluorescence intensity of GFP-Synapsin ([1]; 10 μM, 17 days culture, compound library screening)","aging-specific nuclear membrane abnormalities (SHSY5 cells; SHSY5 cells, Lamin B1 / Lamin A/C staining)","Lamin B1 (LMNB1) mRNA (SHSY5 cells; qPCR, n=4, p<0.01)","aging marker p16 mRNA (SHSY5 cells; qPCR, n=4, p<0.01)",cell loss of DAN compared to normal control cells ([8]; day 7 of culture),cell loss of DAN compared to normal control cells ([8]; day 10 of culture),culture time until Parkinson's disease phenotype is detected ([8]; nerve cells derived from iPS cells of a Parkinson's disease patient),aging-specific nuclear membrane abnormality (Lamin B1) ([9]; fibroblasts derived from a young donor),"proportion of cells showing normal nuclear membrane structure ([9]; fibroblasts derived from a young donor, n=6, p<0.01)","Lamin B1 (nuclear membrane marker) ([9]; young donor-derived fibroblasts, added for 72 hours)"
O=c1cc(-c2cccc3c2Sc2ccccc2S3)oc(N2CCOCC2)c1 [KU55933],only in the cells to which KU60019 was added,,,,,,,,,,,,,,,,,,
C[C@@H]1CN(CC(=O)Nc2ccc3c(c2)Cc2cccc(-c4cc(=O)cc(N5CCOCC5)o4)c2S3)C[C@H](C)O1 [KU-60019],acceleration of cell maturation was observed,accumulated in the nucleus,this difference disappeared,increased depending on the concentration,degraded,decreased depending on the concentration,decreased depending on the concentration,increased to a level equivalent to that in fibroblasts derived from an old donor,increased similarly,highest fluorescence intensity among the compounds selected,aging-specific nuclear membrane abnormalities were caused,decrease,increase; also recorded: significantly elevated,no significant increase in cell loss,lost cells significantly increased,7 days,reduction of Lamin B1,reduced,a decrease in Lamin B1 was found
O=c1cc(N2CCOCC2)oc2c(-c3cccc4c3sc3ccccc34)cccc12 [NU7441],only in the cells to which KU60019 was added,,,,,,,,,,,,,,,,,,
